Measured values: ChEMBL document CHEMBL1158084, “Cytotoxic diterpenoids from the soft coral Sarcophyton crassocaule” (J Nat Prod, 2006)
Converted amounts (≈) assume the structure as drawn.

Test system: KB
Experiment: Cytotoxicity against human KB cells
Format: functional, cell-based

`COC(=O)/C1=C/C=C(/C(C)C)CCC2=CCC[C@](C)(OC2=O)[C@H](OC(C)=O)CC1` [SARCRASSIN D] and `COC(=O)/C1=C\C=C(\C(C)C)CCC2=CCC[C@](C)(OC2=O)[C@@H](OC(C)=O)CC1` [EMBLIDE] are within 1.5-fold of each other in IC50: 4 µg/mL (≈ 9.89 µM) for the first, 5 µg/mL (≈ 12.4 µM) for the second.

First: COC(=O)/C1=C\[C@@H]2O[C@@]2(C(C)C)CC/C(C(=O)OC)=C/CC[C@]2(C)O[C@H]2CC1
Second: COC(=O)/C1=C/C=C(/C(C)C)CCC2=CCC[C@](C)(OC2=O)C(=O)CC1 [SARCRASSIN E]
The IC50 of the first is 2.6-fold lower: 5 µg/mL (≈ 12.7 µM) for the first, 13 µg/mL (≈ 36.1 µM) for the second.
